Reference: patent publication US7846905B2, “Agent for inhibiting visceral fat accumulation” (Morinaga Milk Industry Co., Ltd., priority 2005, dated 2010)

Tests used:
[1] = tested on: ZDF (Zucker Diabetic Fatty) rats; assay: Inhibitory effect on visceral fat accumulation: mesenteric fat weight in ZDF rats (Example 1); type: in vivo; details: for Mesenteric fat weight: ZDF rats on high-fat diet, oral once a day for 44 days, measured on 45th day, A-1 25 μg/kg, A-2 2.5 μg/kg compound, B-1 2.5 g/kg, B-2 0.125 g/kg Aloe vera solid content; for Mesenteric fat weight as compared with the group administered with the negative sample (decrease to) / Effect of inhibiting visceral fat accumulation (statistical significance, Tukey-Kramer's test): ZDF rats, 45th day; for Mesenteric fat weight as compared with the group administered with the negative sample (decrease to): negative sample 6.83±1.10 g; for Effect of inhibiting visceral fat accumulation (statistical significance, Tukey-Kramer's test): versus negative sample
Experimental: The squeezed liquid of Aloe vera gel was diluted 20 folds to prepare Test Sample B-2.
On 45th day from the initiation of the administration, mesenteric fat weights were measured as the visceral fat.

[2] = rat, in vivo
Experimental: This example was performed in order to investigate an effect of 3-O-β-D-glucopyranosyl-4-methylergost-7-en-3-ol and a squeezed liquid of Aloe vera on an amount of food ingestion (amount of food consumption) and increase in body weight (amount of increased body weight) of rats.
The sample was dissolved in DMSO, and the concentration of the sample was adjusted with distilled water to 10 μg/ml, to thereby prepare Test Sample C. Meanwhile, a crude solution was obtained by crushing Aloe vera gel with a juicer, and then was subjected to filtration with a No. 200 mesh (manufactured by NBC), to thereby obtain a squeezed liquid of the Aloe vera gel as Test Sample D. It was confirmed that the crush extract of Aloe vera gel contained 0.1% of 3-O-β-D-glucopyranosyl-4-methylergost-7-en-3-ol by mass. In addition, final concentration of DMSO was adjusted to 0.2%. […]
42 days after initiation of the administration, the body weights of the rats were measured, and differences between the body weights on the 42nd day and those measured before the initiation of the administration were regarded as amounts of increased body weights. In addition, weights of food consumed per day were measured once a week from the day of the initiation of the administration, and an average of the weights was regarded as an amount of food consumption per day.

hemoglobin A1c level = details: WO 2005/095436; cited from earlier work

Row | Structure (SMILES) | Mesenteric fat weight [1] [g] | Mesenteric fat weight as compared with the group administered with the negative sample (decrease to) [1] [%] | Effect of inhibiting visceral fat accumulation (statistical significance, Tukey-Kramer's test) [1] | Amount of food consumption as compared with the negative sample group [2] | Effect on hemoglobin A1c level and hyperglycemia (hemoglobin A1c level)
1 | CC(C)C(C)CCC(C)C1CCC2C3=CCC4C(C)C(OC5OC(CO)C(O)C(O)C5O)CCC4(C)C3CCC21C [Test Sample A-2, 3-O-β-D-glucopyranosyl-4-methylergost-7-en-3-ol] | 4.99 ± 0.53 | 73.1 | statistically significant effects of inhibiting visceral fat accumulation | – | –
2 | CC(C)C(C)CCC(C)C1CCC2C3=CCC4C(C)C(OC5OC(CO)C(O)C(O)C5O)CCC4(C)C3CCC21C [Test Sample A-1, 3-O-β-D-glucopyranosyl-4-methylergost-7-en-3-ol] | 3.15 ± 0.28 | 46.2 | statistically significant effects of inhibiting visceral fat accumulation | – | –
3 | CC(C)C(C)CCC(C)C1CCC2C3=CCC4C(C)C(OC5OC(CO)C(O)C(O)C5O)CCC4(C)C3CCC21C [Compound 1, 3-O-β-D-glucopyranosyl-4-methylergost-7-en-3-ol] | – | – | – | does not affect the amount of food ingestion | effect of decreasing hemoglobin A1c level and improving hyperglycemia
4 | CC(C)C(C)CCC(C)C1CCC2C3=CCC4C(C)C(OC5OC(CO)C(O)C(O)C5O)CCC4(C)C3CCC21C [Test Sample C, 3-O-β-D-glucopyranosyl-4-methylergost-7-en-3-ol] | – | – | – | did not show significant increase or decrease in amount of food consumption | –
